Test results from US9713598B2, “Treatment of insulin resistance associated with prolonged physical inactivity” (ABBOTT LABORATORIES, priority 2013, dated 2017).
Values joined by “and” are separate entries in the source; they are usually repeats but may differ in a detail not shown here. Identical values can stand only once.

Key:
Type in all cases: in vivo
Leptin = assay: 10-day bed rest study in healthy elderly subjects: circulating Leptin (RBM Human Discovery map, serum)
Description: (§1) The following inclusion criteria were verified at screening: male or female ≧60 to ≦79 years of age; body mass index (BMI) ≧20 but ≦35; ambulatory with a Short Performance Physical Battery (SPPB) score of ≧9 (fully functional with no mobility limitations); compliance with prescribed activity level. Exclusion criteria ruled out subjects who had undergone recent major surgery, had active malignancy (exception basal or squamous cell skin carcinoma or carcinoma in situ of the uterine cervix); history of Deep Vein Thrombosis (DVT) or other hypercoagulation disorders; refractory anemia; history of diabetes or fasting blood glucose value >126 mg/dL; presence of partial or full artificial limb; kidney disease or serum creatinine >1.4 mg/dL; evidence of cardiovascular disease assessed during resting or exercise EKG; untreated hypothyroidism; liver disease; chronic or acute GI disease; uncontrolled severe diarrhea, nausea or vomiting; were actively pursuing weight loss; were enrolled in other clinical trials; could not refrain from smoking over the bed rest study period or could not discontinue anticoagulant therapy over bed rest period. Potential subjects were also excluded if they were taking any medications known to affect protein metabolism (e.g., progestational agents, steroids, growth hormone, dronabinol, marijuana, HMB, free amino acid supplements, dietary supplements to aid weight loss).
(§2) The 24 healthy subjects initially involved in the study were randomized into two groups. Subjects in the treatment group received two β-hydroxy-β-methylbutyrate (HMB) sachets containing 1.5 grams Ca-HMB (TSI, Salt Lake City, Utah), 4 grams maltodextrin and 200 mg Calcium with additional sweetener and flavoring groups. Subjects in the control group received two control sachets that were identical to the HMB sachets with the exclusion Ca-HMB. This study was a double-blinded study. Neither the investigators nor the subjects were informed of the identity of any of the study products during the clinical portion of the study. Subjects were instructed to consume twice daily by mixing each sachet into a non-caloric, non-caffeinated, non-carbonated, non-milk-based beverage of their choice. Treatment with HMB or Control was initiated 5 days prior to bed rest and was continued until the end of the rehabilitation period.
For diet stabilization over the pre-bed rest and bed rest period, subjects were fed a metabolically controlled diet providing the RDA for protein intake (0.8 g protein/kg body weight per day). […]
(§3) After a diet stabilization of 5 days (ambulatory period), subjects remained in bed continuously for 10 days. […] Subjects were constantly monitored by nursing staff and received a daily physical examination by the study physician. […]

C-peptide = assay: 10-day bed rest study in healthy elderly subjects: circulating C-peptide (RBM Human Discovery map, serum)
Description: as §1, §2
(§4) For diet stabilization over the pre-bed rest and bed rest period, subjects were fed a metabolically controlled diet providing the RDA for protein intake (0.8 g protein/kg body weight per day). Total calorie needs were estimated using the Harris-Benedict equation for resting energy expenditure according to the following equation: For women=[655+(9.56×body weight in kg)+(1.85×height in cm)−(4.68×age in years)]×AF, or, For men=[66+(13.7×body weight in kg)+(5×height in cm)−([…]]×AF, where AF=activity factor of 1.6 for the ambulatory and 1.35 for the bed rest periods. Given the total calorie and protein intakes, the remainder of the diet was manipulated to keep the non-protein calories at about 60% from carbohydrates and 40% from fat. Water was provided ad libitum.
as §3, with “days. While confined to bed rest, subjects were allowed to use the bedside commode for urination or were taken in a wheelchair for toileting.” for “days.”

[1] = system: Insulin-like Growth Factor-Binding Protein 2 (IGFBP-2); assay: 10-day bed rest study in healthy elderly subjects: circulating IGFBP-2 (RBM Human Discovery map, serum)
Description: as §1, §2, §4
as §3, with “days. While confined to bed rest, subjects were allowed to use the bedside commode for urination or were taken in a wheelchair for toileting.” for “days.”

[2] = HMB Treatment (n = 10), end of 10 days of bed rest
[3] = HMB Treatment (n = 10), two sachets of 1.5 g Ca-HMB daily, started 5 days prior to bed rest, fasted blood, Day 1 of bed rest

CC(C)(O)CC(=O)O [HMB, β-hydroxy-β-methylbutyric acid]
Leptin, Post-bed rest Mean (Leptin; [2]): 19.31 ng/mL
Leptin, Change (Leptin; HMB Treatment (n = 10), pre- to post-bed rest, 10 days, control change 5.06 ± 1.88): 4.11 ng/mL and 4.11 ± 1.89 ng/mL
Leptin, Pre-bed rest Mean (Leptin; [3]): 15.20 ng/mL
effect on bed-rest change in blood levels of Leptin versus untreated control subjects (Leptin; prolonged bed rest, 10 days): reduces or attenuates the increase in blood levels of Leptin
percent increase in blood levels of C-peptide (C-peptide; 10 HMB treated subjects, after 10 days of bed rest, control 43.0%): 29.59%
C-peptide, Post-bed rest Mean (C-peptide; [2]): 1.69 ng/mL
C-peptide, Change (C-peptide; HMB Treatment (n = 10), pre- to post-bed rest, 10 days, control change 0.54 ± 0.22): 0.28 ng/mL and 0.28 ± 0.08 ng/mL
C-peptide, Pre-bed rest Mean (C-peptide; [3]): 1.41 ng/mL
effect on bed-rest change in blood levels of C-peptide versus untreated control subjects (C-peptide; prolonged bed rest, 10 days): reduces or attenuates the increase in blood levels of C-peptide
percent change in blood levels of IGFBP-2 ([1]; 10 HMB treated subjects, after 10 days of bed rest, control −24.56%): −15.63%
IGFBP-2, Post-bed rest Mean [1, 2]: 106.97 ng/mL
IGFBP-2, Change ([1]; HMB Treatment (n = 10), pre- to post-bed rest, 10 days, control change −30.54 ± 13.64): -20.89 ng/mL and -20.89 ± 6.84 ng/mL
IGFBP-2, Pre-bed rest Mean [1, 3]: 127.86 ng/mL
effect on bed-rest change in blood levels of IGFBP-2 versus control subjects ([1]; prolonged bed rest, 10 days): reduces or attenuates the decrease in blood levels of IGFBP-2
